Assays:
[1] = RPTLC lipophilicity determination on octadecylsilane (ODS) bonded layer; conditions: for S (specific hydrophobic surface area): slope of Rm vs methanol fraction; for φo (isocratic chromatographic hydrophobicity index): φo = -Rmw/S, methanol modifier
Procedure: (§1) The engineered lipid film was validated by comparing its performance with the prior art; liquid paraffin film and octadecysilane (ODS) bonded phase, which was selected as reference.
(§2) The computational model employed is a transformation of the planar chromatographic retardation factor Rf according to the following equation: […]
(§3) Linear regression of the Rm values against the fraction of methanol organic modifier in the mobile phase was performed according to the equation: […]
(§4) S, is the specific hydrophobic surface area, while Rmw is the basic lipophilicity parameter calculated from the chromatographic data. The ultimate derived lipophilicity parameter of interest is the isocratic chromatographic hydrophobicity index (φo), which signifies the methanol fraction that will produce half-maximum solute migration on the chromatogram for each compound. […] Derived lipophilicity parameter (φo) values were correlated with Log P and several ChemSketch calculated molecular descriptors to provide quantitative structure property relationships (QSPR) as previously described.

[2] = RPTLC lipophilicity determination on silica-supported leucaena oil (LO) lipid film
Text: (§5) Liquid paraffin in n-hexane (5% w/v) was used as coating solution of silica gel support, to produce the layer which was taken as benchmark. Thin film of liquid paraffin was placed on the silica surface by ascending development of the TLC plates in the coating solution and allowing the plates to air dry afterwards.
(§6) The optimal film thickness was designed by testing the alternative films against array of LP benchmark requirements and constraint. Using nabumetone as model compound and varying the concentration of organic modifier (methanol) in the mobile phase, a plot of linear regression of Rm against methanol fraction was made for LP and all alternative LO layers. Rm was obtained from the expression [drawing 1] where Rf is the chromatographic retardation factor [5]. Retention behavior of nabumetone on LP was compared with its behavior on the alternative LO layers by statistical comparison of the slope (S, specific hydrophobic surface area) and y-intercept, (Rmw, basic lipophilicity parameter) of the regression plot of Rm versus methanol fraction. The retention behavior is described by the regression equation: Rm = Sφ + Rmw (where φ is the methanol fraction). Plate development cycle time for a specific methanol fraction (0.5) was set as design constraint. This was compared by recording the time required for the mobile phase (50% methanol) to traverse 7 cm path length of the various silica-supported layers.
as §1, §2, §3, §4

[3] = RPTLC lipophilicity determination on liquid paraffin (LP) film; conditions: 5% LP film; for S (specific hydrophobic surface area): slope of Rm vs methanol fraction; for φo (isocratic chromatographic hydrophobicity index): φo = -Rmw/S, methanol modifier; for Rmw (basic lipophilicity parameter): y-intercept of Rm vs methanol fraction
Text: as §5, §6, §1, §2, §3, §4

[4] = ref 31 (ADBA), 32 (NPX), 33 (NBT), 34 (HF); cited from earlier work
[5] = parameters: method as in PMID 17767395; conditions: clinical use; cited from earlier work
[6] = ODS layer, y-intercept of Rm vs methanol fraction
[7] = 3.75% LO film, slope of Rm vs methanol fraction
[8] = 3.75% LO film, y-intercept of Rm vs methanol fraction
[9] = 3.75% LO film, φo = -Rmw/S, methanol modifier

## Nc1c([N+](=O)[O-])cc(C(=O)O)cc1[N+](=O)[O-] [ADBA, 4-amino-3,5-dinitrobenzoic acid]
[1]; ODS layer
  S (specific hydrophobic surface area): -1.41
  φo (isocratic chromatographic hydrophobicity index): -0.073
[1]; [6]
  Rmw (basic lipophilicity parameter): -0.102
[2]; [7]
  S (specific hydrophobic surface area): -8.84
[2]; [8]
  Rmw (basic lipophilicity parameter): -0.646
[2]; [9]
  φo (isocratic chromatographic hydrophobicity index): -0.073
[3]
  S (specific hydrophobic surface area): -5.99
  φo (isocratic chromatographic hydrophobicity index): -0.081
[4]
  Log P (octanol/water): -1.50

## CC(C)(C)c1ccc(C(O)CCCN2CCC(C(O)(c3ccccc3)c3ccccc3)CC2)cc1 (stereo not drawn) [Terfenadine, terfenadine]
[5]
  Cardiotoxicity (QT prolongation): withdrawn from clinical use because of cardiotoxicity

## COc1ccc2cc(CCC(C)=O)ccc2c1 [Nabumetone, nabumetone]
[1]
  Rmw (basic lipophilicity parameter): 2.77
[1]; ODS layer
  S (specific hydrophobic surface area): -3.13
  φo (isocratic chromatographic hydrophobicity index): 0.89
[2]; 1.25% LO film
  Rmw (basic lipophilicity parameter): 1.05
  S (specific hydrophobic surface area): -2.33
  φo (isocratic chromatographic hydrophobicity index): 0.45
[2]; 2.5% LO film
  Rmw (basic lipophilicity parameter): 1.94
  S (specific hydrophobic surface area): -3.14
  φo (isocratic chromatographic hydrophobicity index): 0.62
[2]; [7]
  S (specific hydrophobic surface area): -3.95
[2]; [8]
  Rmw (basic lipophilicity parameter): 2.58
[2]; [9]
  φo (isocratic chromatographic hydrophobicity index): 0.66
[2]; 5% LO film
  Rmw (basic lipophilicity parameter): 3.48
  S (specific hydrophobic surface area): -4.67
  φo (isocratic chromatographic hydrophobicity index): 0.75
[3]
  S (specific hydrophobic surface area): -3.48
  Rmw (basic lipophilicity parameter): 2.43
  φo (isocratic chromatographic hydrophobicity index): 0.70
[4]
  Log P (octanol/water): 3.27

## CCCCN(CCCC)CCC(O)c1cc2c(Cl)cc(Cl)cc2c2cc(C(F)(F)F)ccc12 (stereo not drawn) [Halofantrine, halofantrine]
[1]; ODS layer
  S (specific hydrophobic surface area): -4.55
  φo (isocratic chromatographic hydrophobicity index): 1.09
[1]; [6]
  Rmw (basic lipophilicity parameter): 4.94
[2]; [7]
  S (specific hydrophobic surface area): -8.13
[2]; [8]
  Rmw (basic lipophilicity parameter): 8.40
[2]; [9]
  φo (isocratic chromatographic hydrophobicity index): 1.03
[3]
  S (specific hydrophobic surface area): -6.54
  Rmw (basic lipophilicity parameter): 6.76
  φo (isocratic chromatographic hydrophobicity index): 1.03
[4]
  Log P (octanol/water): 3.25

From publication PMC2745359, “Engineering and validation of a novel lipid thin film for biomembrane modeling in lipophilicity determination of drugs and xenobiotics” (Journal of Biological Engineering, 2009)
